According to US11357232B2, “Methods of improving soil health, growth and vigor of perennial grass communities” (Edaphix, LLC, priority 2013, dated 2022):

Legend:
French marigold = conditions: in vivo; cited from earlier work
native perennial grasses = conditions: in vivo
Excerpt: (§5) The prevalence of various invasive species including cheatgrass, dandelions, and perennial noxious weeds (forbs) was observed and correlated with soil copper contamination levels measured at various sites.

[1] = test system: invasive species including cheatgrass, dandelions, and perennial noxious weeds; test: Plant community survey in area contaminated with copper from a copper smelter (Example 22); format: in vivo; conditions: soil copper contamination levels measured at various sites
Excerpt: as §5

dandelions = test: Plant community response at Anaconda Smelter Superfund site; format: in vivo; conditions: where moderate to high levels of water soluble copper and zinc are measured in the soil
spotted knapweed = test: as above; format: in vivo; conditions: gradient of water soluble copper and zinc in soil
humans = conditions: U.S. EPA, 2005 carcinogen assessment guidelines; cited from earlier work
chlorophyllitic plants [2] = test: Photosynthetic disruption by glyphosate; format: in vivo
Experimental: Extensive research has documented that plants are often sensitive to relatively minute concentrations or exposures to unique synthetic compounds or combinations of naturally occurring elements, including micro-nutrients. For example, glyphosate (aka ROUNDUP®, a synthetic Monsanto product) is effective at causing photosynthetic disruption in chlorophyllitic plants at an application rate of as little as 0.75 pounds active ingredient per acre, which equates to only approximately 8 mg/square foot of application, equivalent to approximately 14 ppm application rate. The American Phytopathological Society (APS) reported that micronutrients are generally toxic when present in high amounts, although ‘high concentrations’ are not clearly defined, and little toxicity have been reported at exceptionally low micro-nutrient concentrations. This occurrence is known as micro-nutrient toxicity syndrome (MTS). […] In addition, plants can vary considerably from species to species in their susceptibility to nutrient toxicities. For example, Lee and others (1996) reported inducing seed geranium (Pelargonium x hortorum) micronutrient toxicity symptoms by applying nutrient solutions containing 0.5 mg/L B, Cu, or Zn, or as little as 0.25 mg/L Mo, in combination with nitrogen, phosphorus, and potassium. […]

chlorophyllitic plants [3] = conditions: as little as; cited from earlier work
[4] = test system: seed geranium (Pelargonium x hortorum); conditions: in combination with nitrogen, phosphorus, and potassium; cited from earlier work
invasive plant species = test: Hypothetical dose-response testing of invasive species on a rangeland site (Example 21); format: in vivo; conditions: for biomass reduction: zinc-sensitive invasive species
Experimental: In this example, a rangeland site has become colonized by three invasive species. From dose-response testing it can be determined that 2 of the invasive species can be controlled by boron fertilization while the third is tolerant of boron, but not zinc. Of the two boron-sensitive invasive plant species, one is intolerant to a soil solution level of 3 mg boron per liter, while the other is sensitive to 7 milligrams per liter.

[5] = test system: bluebunch wheatgrass (Pseudoroegenaria spicata); test: Greenhouse pot study watered with boron solutions; conditions: watered 3 times in final 2 weeks
Experimental: (§6) In a greenhouse pot study Kentucky bluegrass, bluebunch wheatgrass, cheatgrass, dandelion and spotted knapweed were grown from seed in potting soil for a period of approximately 26 weeks. Plants were watered with tap water for the first 24 weeks and then 3 times with boron solutions during the final 2 weeks of the study. Boron concentrations used were 5, 10, 25 and 50 mg B/L in addition to a tap water treatment and a commercial plant fertilizer solution.

[6] = test system: bluebunch wheatgrass (Pseudoroegenaria spicata); conditions: in vivo
Experimental: as §6

cheatgrass seed [7] = test: Greenhouse petri dish cheatgrass seed germination experiment; format: in vivo, Bromus tectorum
Experimental: Greenhouse petri dish experiments were completed to evaluate the effect of minute concentrations of boron on cheatgrass seed germination. Treatment concentrations (in addition to a zero treatment control) ranged from 10 to 50 mg B/L dissolved in distilled water. […] A follow-up experiment, essentially repeating the previously described petri dish experiment, with inclusion of a treatment rate as low as 5 mg/L, was completed. It was observed that cheatgrass seeds germinated at the 5 mg/L concentration, with death of the seedlings occurring within 7 days of germination (data not shown).

cheatgrass seed [8] = test: Benchtop seed germination in covered petri dishes with boron solutions (Example 8); format: in vivo, Bromus tectorum; conditions: boron 5 to 50 mg/L; 20 seeds; ten days after treatment
Experimental: Germination percentage of cheatgrass, dandelion, spotted knapweed and Kentucky bluegrass seed was measured ten (10) days after treatment with solutions of increasing boron concentration (FIG. 8). Cheatgrass appeared most sensitive to boron solution resulting in essentially 100% death of 20 cheatgrass seeds in covered petri dishes, when treated with solutions with boron concentration ranging from 5 to 50 mg/L. Control treatment using tap water successful germination percentage exceeded 56%.

[9] = test system: cheatgrass, dandelion, spotted knapweed and Kentucky bluegrass seed; test: as above; format: in vivo; conditions: boron concentrations reached 25 mg/L; ten days after treatment
Experimental: Germination percentage of cheatgrass, dandelion, spotted knapweed and Kentucky bluegrass seed was measured ten (10) days after treatment with solutions of increasing boron concentration (FIG. 8).

[10] = test system: cheatgrass (Bromus tectorum); test: Cheatgrass-affected rangeland site two-year study, surface liquid boron applications (Example 5); format: in vivo; conditions: treated rangeland site
Excerpt: At a cheatgrass-affected rangeland site plant cover over a two-year study period is shown in response to water soluble soil boron concentrations resulting from surface liquid boron applications. Perennial grass cover in the treated rangeland site was increased to between 60 and 70 percent cover while cheatgrass cover decreased and was less than 3% (FIG. 5A) while adjacent untreated rangeland had less perennial grass cover and more cheatgrass after 2 years. (Soil sampling of the 0-6 inch depth was performed annually over a five year period to determine the water soluble boron concentrations both in the treated and untreated areas (FIG. 5B). Transects were used to measure plant cover annually at sites co-located with soil sampling.

perennial grass = test: Rangeland site five-year study, surface liquid boron applications (Example 4); format: in vivo; conditions: treated area
[11] = test system: perennial grass (several species); test: Field trial of boron fertilization in existing perennial grass communities near Belgrade, Mont.; format: in vivo; conditions: over 5 year period after a single application of boron fertilizer; increased from 42%
Experimental: (§1) Field trials were established in existing perennial grass communities near Belgrade, Mont., with high levels of cheatgrass and dandelion invasion into existing perennial grasses to examine use of boron (elemental symbol: B) fertilization for weed control. Minute amounts of boron, in doses as low as 5 mg B/L (soluble) or 2-3 lbs B (dry) active ingredient per acre, were applied to the plots.
(§2) Over the same period of time dandelion cover decreased from a mean of 59% to 15%, and cheatgrass cover decreased from a mean of 47% to 1%, while perennial grass cover increased from 42% to 71%.
(§3) Formulation D, Using the boron-containing compound Na2B4O7.10 H20, the 0.5 mg/L soil concentration applied in the field experiment described in Example 1 was attained by adding 2.55 grams per 100 square foot. The 50 mg/L soil concentration was attained by adding 255 grams per 100 square feet. These concentrations were applied either dry or by dissolving the boron-containing compound in water and then applied as a liquid to field plots.

[12] = test system: dandelion (Taraxacum officinale); test: as above; format: in vivo; conditions: over 5 year period after a single application of boron fertilizer; decreased from a mean of 59%
Experimental: as §1, §2, §3

[13] = test system: cheatgrass (Bromus tectorum); test: as above; format: in vivo
Experimental: as §1, §2, §3

[14] = test system: Kentucky bluegrass (Poa pratensis); test: Greenhouse pot study watered with boron solutions; format: in vivo; conditions: increasing boron concentrations
Excerpt: (§4) Greenhouse pot irrigation study, Bozeman, Mont. (FIG. 6).

[15] = test system: spotted knapweed (Centaurea maculosa); test: Greenhouse pot study watered with boron solutions; format: in vivo
Excerpt: as §4

[16] = test system: dandelion (Taraxacum officinale); test: Greenhouse pot study watered with boron solutions; format: in vivo
Excerpt: as §4

[17] = test system: cheatgrass (Bromus tectorum); test: Greenhouse pot study watered with boron solutions; format: in vivo; conditions: increasing boron concentrations
Excerpt: as §4

[18] = increasing boron concentrations
[19] = lowest boron solution concentration used, 5 mg B/L, watered 3 times in final 2 weeks

[Mn+2] [manganese]
concentration inducing micro-nutrient toxicity (French marigold): 1000 ng/mL

[Mo] [molybdenum]
concentration inducing micro-nutrient toxicity (French marigold): 5000 ng/mL

[Cu] [copper]
tolerance of native perennial grasses to soil copper (native perennial grasses): tolerate higher copper soil levels | occurrence of invasive species versus soil copper [1]: primarily observed at lower copper contamination sites | occurrence of dandelions (dandelions): not found | concentration inducing micro-nutrient toxicity (French marigold): 4000 ng/mL | occurrence of spotted knapweed (spotted knapweed): found growing in soils with low to high levels

borate salts
carcinogenicity classification (humans): not likely to be carcinogenic to humans

O=C(O)CNCP(=O)(O)O [glyphosate]
effective application rate, equivalent per area (chlorophyllitic plants [2]; equates to 0.75 pounds active ingredient per acre): approximately 8 mg/square foot | effective application rate, equivalent (chlorophyllitic plants [2]; equivalent to 0.75 pounds active ingredient per acre): approximately 14 ppm | application rate effective at causing photosynthetic disruption (chlorophyllitic plants [3]): 0.75 pounds active ingredient per acre

[Zn] [zinc]
nutrient solution concentration inducing micronutrient toxicity symptoms [4]: 0.5 mg/L | occurrence of dandelions (dandelions): not found | occurrence of spotted knapweed (spotted knapweed): found growing in soils with low to high levels | biomass reduction (invasive plant species; 0.4 mg zinc per liter): 38% | biomass reduction (invasive plant species; 0.9 milligrams per liter): 89%

boron
tolerated boron concentration [5]: ≥ 50 mg B/L | plant health index (color and vigor) response [6]: little change in plant health | cheatgrass seed germination (observation) (cheatgrass seed [7]; 5 mg/L, follow-up experiment): germinated | death of seedlings, time after germination (cheatgrass seed [7]; 5 mg/L, follow-up experiment): ≤ 7 days | cheatgrass seed germination (cheatgrass seed [7]; 10 to 50 mg B/L in distilled water, after 14 days): zero | cheatgrass seed germination (cheatgrass seed [7]; boron solution 10 mg/L, 14 days post treatment (FIG. 2B)): 0% | death of cheatgrass seeds (cheatgrass seed [8]): ~100% | concentration inducing micro-nutrient toxicity (French marigold): 500 ng/mL | germination of any species [9]: Very little germination | cheatgrass cover [10]: less than 3% | perennial grass densities (perennial grass): increase over time | soil solution level to which invasive species is intolerant (invasive plant species; first boron-sensitive invasive species): 3 mg boron per liter | soil solution level to which invasive species is sensitive (invasive plant species; second boron-sensitive invasive species): 7 milligrams per liter | perennial grass cover [11]: 71% | mean dandelion cover [12]: 15% | emerging or mature cheatgrass plants in plots ([13]; following growing seasons, doses as low as 5 mg B/L or 2-3 lbs B per acre): near-total absence | mean cheatgrass cover ([13]; over 5 year period after a single application of boron fertilizer, decreased from a mean of 47%): 1% | plant health index (color and vigor) response [14]: declined in vigor | plant health index (color and vigor) response [15, 18]: declined in vigor | rate of decline in plant health compared with other species ([15]; increasing solution boron concentration): most rapid decline in plant health | phytotoxic response [15, 19]: marked phytotoxicity | plant health index (color and vigor) response [16, 18]: declined in vigor | phytotoxic response [16, 19]: marked phytotoxicity | plant health index (color and vigor) response [17]: declined in vigor
